# Measured values published in patent US20190248768A1, “METHOD FOR PURIFYING BENZOPYRAN DERIVATIVE, CRYSTAL FORM THEREOF, AND METHOD FOR PREPARING CRYSTAL FORM” (priority 2015, published 2019).
# Key:
# Type in all cases: physicochemical
# [1] = Stability test on humidity
# Experimental: (§1) In the following examples and experimental examples, the high performance liquid chromatography (HPLC) analyses were carried out under the following conditions: • Analytical column: C18, 4.6×250 mm, 5 μm • Mobile phase: buffer solution/acetonitrile=40/60 (v/v) • Buffer solution: ammonium formate (0.657 g) was taken and then added to a 1 L volumetric flask. Water was added thereto to the mark so as to dissolve ammonium formate and then the pH of the resulting solution was adjusted to pH 5.5±0.2 with a diluted formic acid. • Wavelength: 254 nm • Column temperature: 30° C. • Flow rate: 1.0 mL/min. • Injection volume: 10 μL
# (§2) The X-ray powder diffraction (XRPD) analyses were carried out with the PANalytical's X-pert Pro X-ray powder diffractometer. The measurements at the angles ranging from 3 to 80°2θ values were performed at a scanning rate of 3° per second, using CuKα1 radiation (λα1=1.54060 Å) produced at the conditions of 40 mA and 40 kV.
# The crystalline form A of the compound of Formula 1 obtained in Example 1 and the amorphous form of the compound of Formula 1 obtained in Preparation Example were stored at the humid condition (25° C., 98% RH) for 2 weeks, so as to evaluate the stabilities thereof.
# [2] = Accelerated stability test
# Experimental: as §1, §2
# The crystalline form A of the compound of Formula 1 obtained in Example 1 and the amorphous form of the compound of Formula 1 obtained in Preparation Example were stored at the accelerated condition (40° C., 75% RH) for 2 weeks, so as to evaluate the stabilities thereof.
# Thermal stability test = details: 100° C.
# Experimental: as §1, §2
# The crystalline form A of the compound of Formula 1 obtained in Example 1 and the amorphous form of the compound of Formula 1 obtained in Preparation Example were stored at the heat-condition (100° C.) for 2 weeks, so as to evaluate the stabilities thereof.
"Water contents ([1]; 25° C., 98% RH, 1 week) [%]","Purity (as an anhydrous form) ([1]; 25° C., 98% RH, 2 weeks) [%]","Water contents ([1]; 25° C., 98% RH, 2 weeks) [%]","Water contents ([1]; 25° C., 98% RH, 1 day) [%]","Water contents ([1]; 25° C., 98% RH, 2 days) [%]","Purity (as an anhydrous form) ([1]; 25° C., 98% RH, Initial) [%]","Water contents ([1]; 25° C., 98% RH, Initial) [%]","enantiomer during the test period ([1]; 25° C., 98% RH, during 2 weeks)","Water contents ([2]; 40° C., 75% RH, 1 week) [%]","Purity (as an anhydrous form) ([2]; 40° C., 75% RH, 2 weeks) [%]","Water contents ([2]; 40° C., 75% RH, 2 weeks) [%]","Water contents ([2]; 40° C., 75% RH, 1 day) [%]","Water contents ([2]; 40° C., 75% RH, 2 days) [%]","Purity (as an anhydrous form) ([2]; 40° C., 75% RH, Initial) [%]","Water contents ([2]; 40° C., 75% RH, Initial) [%]",Purity (as an anhydrous form) (Thermal stability test; 2 weeks) [%],Water contents (Thermal stability test; 2 weeks) [%],Purity (as an anhydrous form) (Thermal stability test; Initial) [%],Water contents (Thermal stability test; Initial) [%],Compound,change in the appearance (Thermal stability test; during 2 weeks),further results
3.90,96.55,3.58,3.20,3.60,96.96,1.05,no enantiomer was detected,2.52,96.72,2.60,2.30,2.64,96.96,1.05,92.34,0.34,96.96,1.05,"COC(OC)[C@]1(C)Oc2ccc(N)cc2[C@H](N(Cc2ncc[nH]2)c2ccc(Cl)cc2)[C@H]1O [amorphous form of the compound of Formula 1] [(2R,3R,4S)-6-amino-4-[N-(4-chlorophenyl)-N-(1H-imidazol-2-ylmethyl)amino]-3-hydroxy-2-methyl-2-dimethoxymethyl-3,4-dihydro-2H-1-benzopyran]",changed to brown color from the first day,"water contents over the storing time ([1]; 25° C., 98% RH, during 2 weeks): up to 3.90%; hygroscopicity ([1]; humid condition (25° C., 98% RH)): very high hygroscopicity; water contents over the storing time ([2]; 40° C., 75% RH, during 2 weeks): up to 2.64%; hygroscopicity ([2]; accelerated condition (40° C., 75% RH)): very high hygroscopicity; Water contents ([2]; accelerated condition, in 1 day): 2.30 wt/wt %; enantiomer during the test period (Thermal stability test; during 2 weeks): no enantiomer was detected"
0.29,99.32,0.27,0.21,0.24,99.43,0.16,no enantiomer was detected,0.17,99.34,0.18,0.18,0.18,99.43,0.16,99.25,0.11,99.43,0.16,"COC(OC)[C@]1(C)Oc2ccc(N)cc2[C@H](N(Cc2ncc[nH]2)c2ccc(Cl)cc2)[C@H]1O [crystalline form A of the compound of Formula 1] [(2R,3R,4S)-6-amino-4-[N-(4-chlorophenyl)-N-(1H-imidazol-2-ylmethyl)amino]-3-hydroxy-2-methyl-2-dimethoxymethyl-3,4-dihydro-2H-1-benzopyran]",changed to pale yellow color from the first week,"XRPD analyses, crystalline form maintained ([1]; 25° C., 98% RH, during 2 weeks): the same crystalline form A was maintained; change in the appearance ([1]; 25° C., 98% RH, during 2 weeks): without any change in the appearance; XRPD analyses, crystalline form maintained ([2]; 40° C., 75% RH, during 2 weeks): the same crystalline form A was maintained; change in the appearance ([2]; 40° C., 75% RH, during 2 weeks): without any change in the appearance; enantiomer during the test period ([2]; 40° C., 75% RH, during 2 weeks): no enantiomer was detected; XRPD analyses, crystalline form maintained (Thermal stability test; during 2 weeks): the same crystalline form A was maintained; enantiomer during the test period (Thermal stability test; during 2 weeks): no enantiomer was detected"
